Measurements taken from patent US11083717B2, “Compositions and methods for drug sensitization of parasites” (The Texas A&M University System, priority 2015, dated 2021).
Like-named read-outs stand apart in the source and are kept apart here.

Assays:
S. cerevisiae = experiment: in vitro; details: Saccharomyces cerevisiae
From the text: (§1) These tests included an IL-12 mouse model test to determine compound efficacy, verification of MIC50 for CP, cytotoxicity test for fibroblasts and yeast to determine potential toxic effects, a Human ether-a-go-go-related gene (hERG) test to determine potential cardiotoxicity, an AMES test tp determine mutagenic potential, a Safety Screen 44 test to determine common negative off-target drug interastion (Eurofins Cerep, SA, France), a cytochrome P450 (CYP) test to determine potential liver toxicity, a maximum tolerated dose, test, a Pharmacokinetics (PK) test to determine fate of the substance administered to a living organism tests for plasma stability in human and mouse, to measure the degradation of compound in plasma MClint and HClint test to determine in vitro intrinsic clearance for Mouse and Human, and kinetic solubility and plasma protein binding tests in mouse and human.

human fibroblast = experiment: in vitro
From the text: as §1

## CONC(=O)C(C)(C)Oc1ccc(Oc2nc3ccc(Cl)cc3s2)cc1 [NZ-319, 2-{4-[(6-chloro-1,3-benzothiazol-2-yl)oxy]phenoxy}-N-methoxy-2-methylpropanamide]
S. cerevisiae
  concentrations at which not toxic, S. cerevisiae cytotoxicity testing: ≥ 100 µM
Human fibroblast; human
  concentrations at which not toxic, human fibroblast cytotoxicity testing: ≥ 100 µM

## CC(C)NC(=O)Nc1ccc(Oc2nc3cc(Cl)ccc3s2)cc1 [NZ-376, 1-{4-[(5-chloro-1,3-benzothiazol-2-yl)oxy]phenyl}-3-(propan-2-yl)urea]
S. cerevisiae
  concentrations at which not toxic, S. cerevisiae cytotoxicity testing: ≥ 100 µM
Human fibroblast
  concentrations at which not toxic, human fibroblast cytotoxicity testing: ≥ 100 µM

## O=C(O)Cc1ccc(Oc2cnc3cc(Cl)ccc3n2)cc1 [NZ-298, 2-{4-[(6-chloroquinoxalin-2-yl)oxy]phenyl}acetic acid]
S. cerevisiae
  concentrations at which not toxic, S. cerevisiae cytotoxicity testing: ≥ 100 µM
Human fibroblast; human
  concentrations at which not toxic, human fibroblast cytotoxicity testing: ≥ 100 µM

## CONC(=O)c1cc2ccc(Oc3ccccc3)cc2oc1=O [NZ-320, N-methoxy-2-oxo-7-phenoxy-2H-chromene-3-carboxamide]
S. cerevisiae
  concentrations at which not toxic, S. cerevisiae cytotoxicity testing: ≥ 100 µM
Human fibroblast; human
  concentrations at which not toxic, human fibroblast cytotoxicity testing: ≥ 100 µM

## CC(C)NC(=O)Nc1ccc(Oc2nc3ccc(C#N)cc3s2)cc1 [NZ-377, 1-{4-[(6-cyano-1,3-benzothiazol-2-yl)oxy]phenyl}-3-(propan-2-yl)urea]
S. cerevisiae
  concentrations at which not toxic, S. cerevisiae cytotoxicity testing: ≥ 100 µM
Human fibroblast
  concentrations at which not toxic, human fibroblast cytotoxicity testing: ≥ 100 µM

## CC(C)(C)OC(=O)Nc1ccc(Oc2cnc3cc(Cl)ccc3n2)cc1 [NZ-321, tert-butyl N-{4-[(6-chloroquinoxalin-2-yl)oxy]phenyl}carbamate]
S. cerevisiae
  concentrations at which not toxic, S. cerevisiae cytotoxicity testing: ≥ 100 µM
Human fibroblast; human
  concentrations at which not toxic, human fibroblast cytotoxicity testing: ≥ 100 µM

## CC(C(=O)O)c1ccc(Oc2nc3ccc(F)cc3s2)cc1 (stereo not shown) [NZ-329, 2-{4-[(6-fluoro-1,3-benzothiazol-2-yl)oxy]phenyl}propanoic acid]
S. cerevisiae
  concentrations at which not toxic, S. cerevisiae cytotoxicity testing: ≥ 100 µM
Human fibroblast; human
  concentrations at which not toxic, human fibroblast cytotoxicity testing: ≥ 100 µM

## CONC(=O)COc1ccc(Oc2nc3ccc(F)cc3s2)cc1 [NZ-305, 2-{4-[(6-fluoro-1,3-benzothiazol-2-yl)oxy]phenoxy}-N-methoxyacetamide]
S. cerevisiae
  concentrations at which not toxic, S. cerevisiae cytotoxicity testing: ≥ 100 µM
Human fibroblast; human
  concentrations at which not toxic, human fibroblast cytotoxicity testing: ≥ 100 µM

## O=C(O)Cn1ccc(Oc2nc3ccc(F)cc3s2)cc1=O [NZ-418, 2-{4-[(6-fluoro-1,3-benzothiazol-2-yl)oxy]-2-oxo-1,2-dihydropyridin-1-yl}acetic acid]
S. cerevisiae
  concentrations at which not toxic, S. cerevisiae cytotoxicity testing: ≥ 100 µM
Human fibroblast; human
  concentrations at which not toxic, human fibroblast cytotoxicity testing: ≥ 100 µM

## O=C(O)Cc1ccc(Oc2nc3ccc(Cl)cc3s2)cc1 [NZ-287, 2-{4-[(6-chloro-1,3-benzothiazol-2-yl)oxy]phenyl}acetic acid]
S. cerevisiae
  concentrations at which not toxic, S. cerevisiae cytotoxicity testing: ≥ 100 µM
Human fibroblast; human
  concentrations at which not toxic, human fibroblast cytotoxicity testing: ≥ 100 µM

## CONC(=O)Cc1ccc(Oc2nc3ccc(Cl)cc3s2)cc1 [NZ-293, 2-{4-[(6-chloro-1,3-benzothiazol-2-yl)oxy]phenyl}-N-methoxyacetamide]
S. cerevisiae
  concentrations at which not toxic, S. cerevisiae cytotoxicity testing: ≥ 100 µM
Human fibroblast; human
  concentrations at which not toxic, human fibroblast cytotoxicity testing: ≥ 100 µM

## CC(C)ONC(=O)COc1ccc(Oc2cnc3cc(Cl)ccc3n2)cc1 [NZ-326, 2-{4-[(6-chloroquinoxalin-2-yl)oxy]phenoxy}-N-(propan-2-yloxy)acetamide]
S. cerevisiae
  concentrations at which not toxic, S. cerevisiae cytotoxicity testing: ≥ 100 µM
Human fibroblast
  concentrations at which not toxic, human fibroblast cytotoxicity testing: ≥ 100 µM

## CCOC(=O)[C@@H](C)Oc1ccc(Oc2nc3ccc(F)cc3s2)cc1 [NZ-251, ethyl (2R)-2-{4-[(6-fluoro-1,3-benzothiazol-2-yl)oxy]phenoxy}propanoate]
S. cerevisiae
  concentrations at which not toxic, S. cerevisiae cytotoxicity testing: ≥ 100 µM
Human fibroblast; human
  concentrations at which not toxic, human fibroblast cytotoxicity testing: ≥ 100 µM

## COC(=O)C(O)c1ccc(Oc2nc3ccc(Cl)cc3s2)cc1 (stereo not shown) [NZ-336, methyl 2-{4-[(6-chloro-1,3-benzothiazol-2-yl)oxy]phenyl}-2-hydroxyacetate]
S. cerevisiae
  concentrations at which not toxic, S. cerevisiae cytotoxicity testing: 50 to 100 µM
Human fibroblast; human
  concentrations at which not toxic, human fibroblast cytotoxicity testing: 50 to 100 µM

## CC(=O)Nc1ccc(Oc2nc3ccc(F)cc3s2)cc1 [NZ-420, N-{4-[(6-fluoro-1,3-benzothiazol-2-yl)oxy]phenyl}acetamide]
S. cerevisiae
  concentrations at which not toxic, S. cerevisiae cytotoxicity testing: ≥ 100 µM
Human fibroblast; human
  concentrations at which not toxic, human fibroblast cytotoxicity testing: ≥ 100 µM

## O=C(O)Cc1ccc(Oc2nc3ccc(F)cc3s2)cc1 [NZ-299, 2-{4-[(6-fluoro-1,3-benzothiazol-2-yl)oxy]phenyl}acetic acid]
S. cerevisiae
  concentrations at which not toxic, S. cerevisiae cytotoxicity testing: ≥ 100 µM
Human fibroblast
  concentrations at which not toxic, human fibroblast cytotoxicity testing: ≥ 100 µM

## CC(C(=O)NCC(O)CO)c1ccc(Oc2cnc3cc(Cl)ccc3n2)cc1 (stereo not shown) [NZ-534, 2-{4-[(6-chloroquinoxalin-2-yl)oxy]phenyl}-N-(2,3-dihydroxypropyl)propanamide]
S. cerevisiae
  concentrations at which not toxic, S. cerevisiae cytotoxicity testing: ≥ 100 µM
Human fibroblast; human
  concentrations at which not toxic, human fibroblast cytotoxicity testing: ≥ 100 µM

## CONC(=O)Cc1ccc(Oc2nc3ccc(F)cc3s2)cc1 [NZ-300, 2-{4-[(6-fluoro-1,3-benzothiazol-2-yl)oxy]phenyl}-N-methoxyacetamide]
S. cerevisiae
  concentrations at which not toxic, S. cerevisiae cytotoxicity testing: ≥ 100 µM
Human fibroblast
  concentrations at which not toxic, human fibroblast cytotoxicity testing: ≥ 100 µM

## COC(=O)C(C)c1ccc(Oc2nc3ccc(F)cc3s2)cc1 (stereo not shown) [NZ-328, methyl 2-{4-[(6-fluoro-1,3-benzothiazol-2-yl)oxy]phenyl}propanoate]
S. cerevisiae
  concentrations at which not toxic, S. cerevisiae cytotoxicity testing: ≥ 100 µM
Human fibroblast; human
  concentrations at which not toxic, human fibroblast cytotoxicity testing: ≥ 100 µM

## CCNC(=O)COc1ccc(Oc2cnc3cc(Cl)ccc3n2)cc1 [NZ-306, 2-{4-[(6-chloroquinoxalin-2-yl)oxy]phenoxy}-N-ethylacetamide]
S. cerevisiae
  concentrations at which not toxic, S. cerevisiae cytotoxicity testing: ≥ 100 µM
Human fibroblast
  concentrations at which not toxic, human fibroblast cytotoxicity testing: ≥ 100 µM

## CC(C)NC(=O)N(C)c1ccc(Oc2nc3ccc(Cl)cc3s2)cc1 [NZ-388, 1-{4-[(6-chloro-1,3-benzothiazol-2-yl)oxy]phenyl}-1-methyl-3-(propan-2-yl)urea]
S. cerevisiae
  concentrations at which not toxic, S. cerevisiae cytotoxicity testing: ≥ 100 µM
Human fibroblast
  concentrations at which not toxic, human fibroblast cytotoxicity testing: ≥ 100 µM

## O=C(O)Cc1c(F)cc(Oc2nc3ccc(Cl)cc3s2)cc1F [NZ-458, 2-{4-[(6-chloro-1,3-benzothiazol-2-yl)oxy]-2,6-difluorophenyl}acetic acid]
S. cerevisiae
  concentrations at which not toxic, S. cerevisiae cytotoxicity testing: ≥ 100 µM
Human fibroblast; human
  concentrations at which not toxic, human fibroblast cytotoxicity testing: ≥ 100 µM

## COC(=O)C(C)c1ccc(Oc2cnc3cc(Cl)ccc3n2)cc1 (stereo not shown) [NZ-308, methyl 2-{4-[(6-chloroquinoxalin-2-yl)oxy]phenyl}propanoate]
S. cerevisiae
  concentrations at which not toxic, S. cerevisiae cytotoxicity testing: ≥ 100 µM
Human fibroblast; human
  concentrations at which not toxic, human fibroblast cytotoxicity testing: ≥ 100 µM

## Nc1ccc(Oc2nc3ccc(F)cc3s2)cc1 [NZ-413, 4-[(6-fluoro-1,3-benzothiazol-2-yl)oxy]aniline]
S. cerevisiae
  concentrations at which not toxic, S. cerevisiae cytotoxicity testing: ≥ 100 µM
Human fibroblast; human
  concentrations at which not toxic, human fibroblast cytotoxicity testing: ≥ 100 µM

## CC(C)(Oc1ccc(Oc2cnc3cc(Cl)ccc3n2)cc1)C(=O)O [NZ-315, 2-{4-[(6-chloroquinoxalin-2-yl)oxy]phenoxy}-2-methylpropanoic acid]
S. cerevisiae
  concentrations at which not toxic, S. cerevisiae cytotoxicity testing: ≥ 100 µM
Human fibroblast
  concentrations at which not toxic, human fibroblast cytotoxicity testing: ≥ 100 µM

## CC(C)NC(=O)Nc1ccc(Oc2nc3ccc(Cl)cc3s2)c[n+]1[O-] [NZ-391, 1-{5-[(6-chloro-1,3-benzothiazol-2-yl)oxy]-1-oxo-1λ^5-pyridin-2-yl}-3-(propan-2-yl)urea]
S. cerevisiae
  concentrations at which not toxic, S. cerevisiae cytotoxicity testing: ≥ 100 µM
Human fibroblast; human
  concentrations at which not toxic, human fibroblast cytotoxicity testing: ≥ 100 µM

## CONC(=O)C(C)c1ccc(Oc2nc3ccc(Cl)cc3s2)cc1 (stereo not shown) [NZ-313, 2-{4-[(6-chloro-1,3-benzothiazol-2-yl)oxy]phenyl}-N-methoxypropanamide]
S. cerevisiae
  concentrations at which not toxic, S. cerevisiae cytotoxicity testing: ≥ 100 µM
Human fibroblast; human
  concentrations at which not toxic, human fibroblast cytotoxicity testing: ≥ 100 µM

## CC(C)NC(=O)Cn1ccc(Oc2nc3ccc(Cl)cc3s2)cc1=O [NZ-404, 2-{4-[(6-chloro-1,3-benzothiazol-2-yl)oxy]-2-oxo-1,2-dihydropyridin-1-yl}-N-(propan-2-yl)acetamide]
S. cerevisiae
  concentrations at which not toxic, S. cerevisiae cytotoxicity testing: ≥ 100 µM
Human fibroblast; human
  concentrations at which not toxic, human fibroblast cytotoxicity testing: ≥ 100 µM

## CC(C(=O)O)c1ccc(Oc2cnc3cc(Cl)ccc3n2)cc1 (stereo not shown) [NZ-309, 2-{4-[(6-chloroquinoxalin-2-yl)oxy]phenyl}propanoic acid]
S. cerevisiae
  concentrations at which not toxic, S. cerevisiae cytotoxicity testing: ≥ 100 µM
Human fibroblast; human
  concentrations at which not toxic, human fibroblast cytotoxicity testing: ≥ 100 µM

## O=C(O)Cn1ccc(Oc2nc3ccc(Cl)cc3s2)cc1=O [NZ-397, 2-{4-[(6-chloro-1,3-benzothiazol-2-yl)oxy]-2-oxo-1,2-dihydropyridin-1-yl}acetic acid]
S. cerevisiae
  concentrations at which not toxic, S. cerevisiae cytotoxicity testing: ≥ 100 µM
Human fibroblast
  concentrations at which not toxic, human fibroblast cytotoxicity testing: ≥ 100 µM

## CC(C)NC(=O)Cc1ccc(Oc2nc3ccc(F)cc3s2)cc1O [NZ405, 2-{4-[(6-fluoro-1,3-benzothiazol-2-yl)oxy]-2-hydroxyphenyl}-N-(propan-2-yl)acetamide]
S. cerevisiae
  concentrations at which not toxic, S. cerevisiae cytotoxicity testing: ≥ 100 µM
Human fibroblast
  concentrations at which not toxic, human fibroblast cytotoxicity testing: ≥ 100 µM

## CC(C)(C)OC(=O)NCCC(=O)Nc1ccc(Oc2nc3ccc(F)cc3s2)cc1 [NZ-414, tert-butyl N-[2-({4-[(6-fluoro-1,3-benzothiazol-2-yl)oxy]phenyl}carbamoyl)ethyl]carbamate]
S. cerevisiae
  concentrations at which not toxic, S. cerevisiae cytotoxicity testing: ≥ 100 µM
Human fibroblast; human
  concentrations at which not toxic, human fibroblast cytotoxicity testing: ≥ 100 µM
